Assay results published in EP0560267B1, “Isosteric antiherpes peptide derivatives” (BOEHRINGER INGELHEIM (CANADA) LTD., priority 1992, dated 1993).
Where two headings read alike, the source gives them in different places.

How the values were obtained:
HSV-2 = test: Inhibition of Herpes Simplex Virus (HSV-2) replication in cell culture; type: cell-based
Experimental: Inhibition of Herpes Simplex Virus (HSV-2) Replication in Cell Culture
BHK-21/C13 cells (ATCC CCL 10) are incubated for two days in 150 cm^2 T-flasks (1.5 x 10^6 cells/flask) with alpha-MEM medium (Gibco Canada Inc., Burlington, Ontario, Canada) supplemented with 8% (v/v) fetal bovine serum (FBS, Gibco Canada Inc.). The cells are trypsinized and then transferred to fresh media in a 24 well plate to give 2.5 x 10^5 cells in 750 µL of media per well. The cells are incubated at 37° for a period of 6 h to allow them to adhere to the plate. Thereafter, the cells are washed once with 500 µL of alpha-MEM supplemented with 0.5% (v/v) FBS and then incubated with 750 µL of the same media (low serum) for 3 days. After this period of serum starvation, the low serum medium is removed and the cells are incubated in 500 µL of BBMT for 2 to 3 hours. {BBMT medium is described by P. Brazeau et al., Proc. Natl. Acad. Sci. USA, 79, 7909 (1982).} Thereafter, the cells are infected with HSV-2 (multiplicity of infection = 0.02 PFU/cell) in 100 µL of BBMT medium. (Note: The HSV-2 used was strain HG-52, see Y. Langelier and G. Buttin, J. Gen. Virol., 57, 21 (1981); the virus was stored at -80°.) Following 1 h of virus adsorption at 37°, the media is removed and the cells are washed with BBMT (3 X 250 µL). The cells in each well are incubated with or without (control) appropriate concentrations of the test agent dissolved in 200 µL of BBMT medium. After 29 h of incubation at 37°, the infected cells are harvested by first freezing the plate at -80°, followed by thawing. The cells in each well are scraped off the surface of the well with the help of the melting ice fragments. After complete thawing, the cell suspensions are collected and each well is rinsed with 150 µL of BBMT medium. The viral sample (suspension plus washing) is sonicated gently for 4 min at 4°. Cell debris are removed by centrifugation (1000 times gravity for 10 minutes at 4°). The supernatant is collected and stored at -80° until determination of viral titer.
Viral titration was performed by a modification of the colorimetric assay method of M. Langlois et al., Journal of Biological Standardization, 14, 201 (1986).
More specifically, in a similar manner as described above, BHK-21/C13 cells are trypsinized and transferred to fresh media in a 96 well microtiter plate to give 20,000 cells in 100 µL of media per well. The cells in the prepared plate are incubated at 37° for 2 h. During that time, the viral sample is thawed and sonicated gently for 15 seconds, and log dilutions of the sample are prepared (1/5 sequential: 50 µL of the sample plus 200 µL of BBMT medium, sequential dilutions being done with a multichannel pipette.
On completion of the above 2 hour incubation of the BHK-21/C13 cells, the media is replaced with alpha-MEM medium supplemented with 3% (v/v) FBS. The cells are now ready to be infected with the various sample dilutions of virus. Aliquots (50 µL) of the various dilutions are transferred into the appropriate wells of the plate. The resulting infected cells are incubated for 2 days at 37°. Then 50 µL of a 0.15% (v/v) solution of neutral red dye in Hank's Balanced Salt Solution (pH 7.3, Gibco Canada Inc.) is added to each well. The prepared plate is incubated for 45 min at 37°. Medium from each well is then aspirated and the cells are washed once with 200 µL of Hank's Balanced Salt Solution. […]

[1] = target: T1, HSV-1 ribonucleotide reductase (Human herpesvirus 1, UniProt P08543); test: Inhibition of Herpes Simplex Virus (HSV-1) ribonucleotide reductase; type: biochemical
T1 construct: HSV-1 ribonucleotide reductase (partially purified) was obtained from quiescent BHK-21/C13 cells infected with strain F HSV-1 virus; made in house; host or cells: quiescent BHK-21/C13 cells infected with HSV-1 strain F (virus-encoded enzyme, partially purified)
T1 sequence (P08543 whole entry): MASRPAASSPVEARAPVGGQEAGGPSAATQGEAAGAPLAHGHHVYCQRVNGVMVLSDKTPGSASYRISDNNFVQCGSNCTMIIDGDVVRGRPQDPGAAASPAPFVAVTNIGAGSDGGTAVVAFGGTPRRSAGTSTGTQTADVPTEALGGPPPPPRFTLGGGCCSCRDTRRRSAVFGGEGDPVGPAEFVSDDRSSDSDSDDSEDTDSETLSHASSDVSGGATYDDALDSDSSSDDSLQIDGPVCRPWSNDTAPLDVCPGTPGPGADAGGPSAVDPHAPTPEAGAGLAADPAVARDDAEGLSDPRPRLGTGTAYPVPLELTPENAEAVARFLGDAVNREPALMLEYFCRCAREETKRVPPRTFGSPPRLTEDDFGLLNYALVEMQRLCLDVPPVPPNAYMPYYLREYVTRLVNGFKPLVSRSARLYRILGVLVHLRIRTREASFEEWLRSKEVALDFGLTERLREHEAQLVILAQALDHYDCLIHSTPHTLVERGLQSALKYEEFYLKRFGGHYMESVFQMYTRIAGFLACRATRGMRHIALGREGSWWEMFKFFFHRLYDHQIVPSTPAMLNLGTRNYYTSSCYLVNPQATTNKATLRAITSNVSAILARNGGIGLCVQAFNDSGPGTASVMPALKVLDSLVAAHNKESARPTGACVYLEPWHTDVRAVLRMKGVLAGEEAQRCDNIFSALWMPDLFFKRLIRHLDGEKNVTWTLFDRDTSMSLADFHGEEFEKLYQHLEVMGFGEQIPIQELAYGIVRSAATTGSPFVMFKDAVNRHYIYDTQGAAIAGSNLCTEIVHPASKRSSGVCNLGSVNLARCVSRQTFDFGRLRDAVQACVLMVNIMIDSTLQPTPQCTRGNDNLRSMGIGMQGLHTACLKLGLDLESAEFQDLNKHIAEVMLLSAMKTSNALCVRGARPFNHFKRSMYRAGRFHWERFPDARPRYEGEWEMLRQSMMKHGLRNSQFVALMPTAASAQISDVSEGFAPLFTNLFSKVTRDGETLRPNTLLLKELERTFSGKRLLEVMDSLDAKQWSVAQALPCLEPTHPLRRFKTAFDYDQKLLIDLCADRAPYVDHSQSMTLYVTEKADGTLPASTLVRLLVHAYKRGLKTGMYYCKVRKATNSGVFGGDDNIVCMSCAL
Excerpt: Inhibition of Herpes Simplex Virus (HSV-1) Ribonucleotide Reductase
• a) Preparation of Enzyme HSV-1 ribonucleotide reductase (partially purified) was obtained from quiescent BHK-21/C13 cells infected with strain F HSV-1 virus at 10 plaque forming units/cell as described by E.A. Cohen et al., J. Gen. Virol., 66, 733 (1985). • b) Assay and Results for Exemplified Peptides By following the procedure described by P. Gaudreau et al., J. Biol, Chem., 262, 12413 (1987), the assay results listed in the following Table I were obtained. The assay result for each exemplified compound of formula 1 is expressed as the concentration of the compound producing 50% of the maximal inhibition (IC50) of enzyme activity. The number of units of the enzyme preparation used in each assay was constant, based on the specific activity of the enzyme preparation. The results are relative to the activity obtained in control experiments without the test compound and represent the mean of four assays that varied less than 10% with each other.

[2] = Human alphaherpesvirus 2, Table IV, cell culture assay of example 11, read-out: EC50
[3] = Human alphaherpesvirus 2, Table V, cell culture assay of example 11
[4] = Human alphaherpesvirus 2, BHK21 (C13), 29 h, Table II, BHK-21/C13 cells, HSV-2 strain HG-52, 0.02 PFU/cell, 29 h incubation, read-out: EC50
[5] = Table I, partially purified enzyme from BHK-21/C13 cells infected with strain F HSV-1, mean of four assays

SMILES | EC50 (HSV-2; [2]) [µM] | IC50 ([1]; Table IV, assay of example 10) [µM] | IC50 ([1]; Table V, assay of example 10) [µM] | also measured
CCCC(CCC)NC(=O)NC(C(=O)CC(CC(=O)C(C)(C)C)C(=O)NC(C(=O)NCC(C)(CC)CC)C1(C(=O)O)CCCC1)C(C)(C)C [Pr2CHNHC(O) / NHCH2CEt2Me, Pr2CHNHC(O)-Tbg-CH2-(R)-CH(CH2C(O)CMe3)C(O)-Asp(cyPn)-NHCH2CEt2Me] | 18 | 0.34 |  | 
CCCC(CCC)NC(=O)NC(C(=O)CC(CC(=O)C(C)(C)C)C(=O)NC(C(=O)NCC(CC)(CC)CC)C1(C(=O)O)CCCC1)C(C)(C)C [Pr2CHNHC(O) / NHCH2CEt3, Pr2CHNHC(O)-Tbg-CH2-(R)-CH(CH2C(O)CMe3)C(O)-Asp(cyPn)-NHCH2CEt3] | 19 | 0.52 |  | 
CCCC(CCC)NC(=O)NC(C(=O)CC(CC(=O)C(C)(C)C)C(=O)NC(C(=O)NCC(C)(C)CCC)C1(C(=O)O)CCCC1)C(C)(C)C [Pr2CHNHC(O) / NHCH2CMe2Pr, Pr2CHNHC(O)-Tbg-CH2-(R)-CH(CH2C(O)CMe3)C(O)-Asp(cyPn)-NHCH2CMe2Pr] | 35 | 0.42 |  | 
CCCC(CCC)NC(=O)NC(C(=O)CC(CC(=O)C(C)(C)C)C(=O)NC(C(=O)NC(C)C(C)(C)C)C1(C(=O)O)CCCC1)C(C)(C)CC [Pr2CHNHC(O)-NH-(S)-CH(CMe2Et)-C(O)-CH2-(R)-CH(CH2C(O)CMe3)C(O)-Asp-(cyPn)-NH-(R)-CH(Me)CMe3] |  |  | 0.25 | EC50 (HSV-2; [3]): 13 µM
CCCC(CCC)NC(=O)NC(C(=O)CC(CC(=O)C(C)C)C(=O)NC(C(=O)NCC(C)(C)C)C1(C(=O)O)CCCC1)C(C)(C)C [Pr2CHNHC(O)-Tbg-CH2-(R)-CH(CH2-C(O)CHMe2)C(O)-Asp(cyPn)-NHCH2-CMe3] |  |  | 0.36 | EC50 (HSV-2; [3]): 39 µM
CCCC(CCC)NC(=O)NC(C(=O)CC(CC(=O)C(C)(C)CC)C(=O)NC(C(=O)NCC(C)(C)C)C1(C(=O)O)CCCC1)C(C)(C)C [Pr2CHNHC(O)-Tbg-CH2-(R)-CH(CH2-C(O)CMe2Et)C(O)-Asp(cyPn)-NHCH2-CMe3] |  |  | 0.21 | EC50 (HSV-2; [3]): 33 µM
CCCC(CCC)NC(=O)NC(C(=O)CC(CC(=O)C(C)(C)C)C(=O)NC(C(=O)NCC(C)(C)C)C(CCC)C(=O)O)C(C)(C)C [Pr2CHNHC(O)-Tbg-CH2-(R)-CH(CH2-C(O)CMe3)C(O)-Asp{(R)-Pr}-NHCH2CMe3] |  |  | 0.25 | EC50 (HSV-2; [3]): 46 µM
C=CCC(C(=O)O)C(NC(=O)C(CC(=O)C(NC(=O)NC(CCC)CCC)C(C)(C)C)CC(=O)C(C)(C)C)C(=O)NCC(C)(C)C [Pr2CHNHC(O)-Tbg-CH2-(R)-CH(CH2-C(O)CMe3)C(O)-Asp{(R)-allyl}-NHCH2CMe3] |  |  | 0.3 | EC50 (HSV-2; [3]): 62 µM
CCCC(CCC)NC(=O)NC(C(=O)CC(CC(=O)C(C)(C)C)C(=O)NC(C(=O)NCC(C)(C)C)C1(C(=O)O)CCCC1)C(C)(C)C [Pr2CHNHC(O)-Tbg-CH2-(R)-CH(CH2C(O)-CMe3)C(O)-Asp(cyPn)-NHCH2CMe3] |  |  |  | EC50 (HSV-2; [4]): 24 µM; IC50 [1, 5]: 0.08 µM
CCCC(CCC)NC(=O)NC(C(=O)CC(CC(=O)C(C)(C)C)C(=O)NC(C(=O)NC(CO)CC(C)(C)C)C1(C(=O)O)CCCC1)C(C)(C)C [Pr2CHNHC(O)-Tbg-CH2-(R)-CH(CH2C(O)-CMe3)C(O)-Asp(cyPn)-γMeLeucinol] |  |  |  | EC50 (HSV-2; [4]): 30 µM; IC50 [1, 5]: 0.2 µM
CCCC(CCC)NC(=O)NC(C(=O)CC(CC(=O)C1(C)CCCC1)C(=O)NC(C(=O)NCC(C)(C)C)C1(C(=O)O)CCCC1)C(C)(C)C [Pr2CHNHC(O)-Tbg-CH2-(R)-CH{CH2-C(O)-(1-methylcyclopentyL)}C(O)-Asp(cyPn)-NHCH2CMe3] |  |  | 0.24 | EC50 (HSV-2; Human alphaherpesvirus 2): 35 µM
CCCC(CCC)NC(=O)NC(C(=O)CC(CC(=O)C1CCC1)C(=O)NC(C(=O)NCC(C)(C)C)C1(C(=O)O)CCCC1)C(C)(C)C [Pr2CHNHC(O)-Tbg-CH2-(R)-CH{CH2-C(O)-(cyclobutyl)}C(O)-Asp(cyPn)-NHCH2CMe3] |  |  | 0.31 | EC50 (HSV-2; Human alphaherpesvirus 2): 46 µM

The next lines start with results.

EC50 (HSV-2; [2]) [µM] | IC50 ([1]; Table IV, assay of example 10) [µM] | IC50 ([1]; Table V, assay of example 10) [µM] | SMILES | also measured
72 | 0.58 |  | CCCC(CCC)NC(=O)NC(C(=O)CC(CC(=O)C(C)(C)C)C(=O)NC(C(=O)NCCC(C)(C)C)C1(C(=O)O)CCCC1)C(C)(C)C [Pr2CHNHC(O) / NHCH2CH2CMe3, Pr2CHNHC(O)-Tbg-CH2-(R)-CH(CH2C(O)CMe3)C(O)-Asp(cyPn)-NHCH2CH2CMe3] | 
16 | 0.24 |  | CCCC(CCC)NC(=O)NC(C(=O)CC(CC(=O)C(C)(C)C)C(=O)NC(C(=O)NCC(C)(C)CC)C1(C(=O)O)CCCC1)C(C)(C)C [Pr2CHNHC(O) / NHCH2CMe2Et, Pr2CHNHC(O)-Tbg-CH2-(R)-CH(CH2C(O)CMe3)C(O)-Asp(cyPn)-NHCH2CMe2Et] | 
38 | 0.51 |  | CCCC(CCC)NC(=O)NC(C(=O)CC(CC(=O)C(C)(C)C)C(=O)NC(C(=O)NC(C)(C)C(C)(C)C)C1(C(=O)O)CCCC1)C(C)(C)C [Pr2CHNHC(O) / NHCMe2CMe3, Pr2CHNHC(O)-Tbg-CH2-(R)-CH(CH2C(O)CMe3)C(O)-Asp(cyPn)-NHCMe2CMe3] | 
80 | 0.22 |  | CCCC(CCC)NC(=O)NC(C(=O)CC(CC(=O)C(C)(C)C)C(=O)NC(C(=O)NN(CC)C(C)(C)C)C1(C(=O)O)CCCC1)C(C)(C)C [Pr2CHNHC(O) / NHN(Et)CMe3, Pr2CHNHC(O)-Tbg-CH2-(R)-CH(CH2C(O)CMe3)C(O)-Asp(cyPn)-NHN(Et)CMe3] | 
84 | 0.22 |  | CCCC(CCC)NC(=O)NC(C(=O)CC(CC(=O)C(C)(C)C)C(=O)NC(C(=O)NNC(C)(C)C)C1(C(=O)O)CCCC1)C(C)(C)C [Pr2CHNHC(O) / NHNHCMe3, Pr2CHNHC(O)-Tbg-CH2-(R)-CH(CH2C(O)CMe3)C(O)-Asp(cyPn)-NHNHCMe3] | 
24 | 0.4 |  | CCCC(CCC)NC(=O)NC(C(=O)CC(CC(=O)C(C)(C)C)C(=O)NC(C(=O)NC1CCCCC1(C)C)C1(C(=O)O)CCCC1)C(C)(C)C [Pr2CHNHC(O)-Tbg-CH2-(R)-CH(CH2C(O)CMe3)C(O)-Asp(cyPn)-NH-(2,2-dimethyl-cyclohexyl)] | 
31 | 0.38 |  | CCCC(CCC)NC(=O)NC(C(=O)CC(CC(=O)C(C)(C)C)C(=O)NC(C(=O)NC1CCCC1(C)C)C1(C(=O)O)CCCC1)C(C)(C)C [Pr2CHNHC(O)-Tbg-CH2-(R)-CH(CH2C(O)CMe3)C(O)-Asp(cyPn)-NH-(2,2-dimethyl-cyclopentyl)] | 
 | 0.5 |  | CCCC(CCC)NC(=O)NC(C(=O)CC(CC(=O)C(C)(C)C)C(=O)NC(C(=O)NC(C)C(C)(C)CC)C1(C(=O)O)CCCC1)C(C)(C)C [Pr2CHNHC(O)-Tbg-CH2-(R)-CH(CH2C(O)CMe3)C(O)-Asp(cyPn)-NH-(R)-CH(Me)C(Me)2Et] | EC50 (HSV-2; Human alphaherpesvirus 2, Table IV, cell culture assay of example 11): 21 µM
75 | 0.67 |  | CCCC(CCC)NC(=O)NC(C(=O)CC(CC(=O)C(C)(C)C)C(=O)NC(C(=O)NC1CCCCC1C)C1(C(=O)O)CCCC1)C(C)(C)C [Pr2CHNHC(O)-Tbg-CH2-(R)-CH(CH2C(O)CMe3)C(O)-Asp(cyPn)-cis-NH-(2-methyl-cyclohexyl)] | 
